The values that follow come from US20230271966A1, “PRPK INHIBITORS” (Dana-Farber Cancer Institute, Inc., priority 2020, published 2023).

A word on the Kd: it is the constant that tells how readily two partners part at equilibrium. A high value points to a looser complex.

A value given as a limit tells only on which side of the number the result lay.

Assay [1] deals with PRPK (Homo sapiens (Human), UniProt Q96S44). Put plainly: Isothermal titration calorimetry (ITC), PRPK. Type of assay: binding. To be noted: for Kd: 20 μM protein titrated with 200 μM test compound, 20 mM HEPES pH 7.5, 150 mM NaCl, 0.5 mM TCEP, 2% DMSO, 25° C, single site model; for PRPK binding Kd compared with pomalidomide: ITC, comparison in words with control Pomalidomide. The method, then: (§1) All calorimetric experiments were carried out using an Affinity ITC from TA Instruments (New Castle, Del.) equipped with an auto sampler in a buffer containing 20 mM HEPES, pH 7.5, 150 mM NaCl, 0.5 mM TCEP, and 2% DMSO at 25° C. 20 μM protein solution containing PRPK or Cereblon (CRBN) in the calorimetric cell was titrated with 200 μM of a test compound solution using 2 μL injection in 200 seconds intervals using a stirring speed at 125 rpm. Resulting isotherm was fitted with a single site model to yield thermodynamic parameters of ΔH, ΔS, stoichiometry, and Kd using NanoAnalyze software (TA instruments).

Assay [2] addresses Cereblon (CRBN) (Homo sapiens (Human), UniProt Q96SW2). Put plainly: Isothermal titration calorimetry (ITC), Cereblon (CRBN). Type of assay: binding. The conditions noted are these: for Kd: 20 μM protein titrated with 200 μM test compound, 20 mM HEPES pH 7.5, 150 mM NaCl, 0.5 mM TCEP, 2% DMSO, 25° C, single site model. The procedure: as §1

Sequence of PRPK (Q96S44 whole entry): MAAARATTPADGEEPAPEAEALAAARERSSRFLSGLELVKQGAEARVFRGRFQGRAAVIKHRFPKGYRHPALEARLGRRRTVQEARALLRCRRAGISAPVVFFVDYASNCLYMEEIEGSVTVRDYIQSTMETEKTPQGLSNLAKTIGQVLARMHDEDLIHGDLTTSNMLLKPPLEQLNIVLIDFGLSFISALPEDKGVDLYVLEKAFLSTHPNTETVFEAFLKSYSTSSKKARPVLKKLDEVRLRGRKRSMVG
Sequence of Cereblon (CRBN) (Q96SW2 whole entry, species assumed): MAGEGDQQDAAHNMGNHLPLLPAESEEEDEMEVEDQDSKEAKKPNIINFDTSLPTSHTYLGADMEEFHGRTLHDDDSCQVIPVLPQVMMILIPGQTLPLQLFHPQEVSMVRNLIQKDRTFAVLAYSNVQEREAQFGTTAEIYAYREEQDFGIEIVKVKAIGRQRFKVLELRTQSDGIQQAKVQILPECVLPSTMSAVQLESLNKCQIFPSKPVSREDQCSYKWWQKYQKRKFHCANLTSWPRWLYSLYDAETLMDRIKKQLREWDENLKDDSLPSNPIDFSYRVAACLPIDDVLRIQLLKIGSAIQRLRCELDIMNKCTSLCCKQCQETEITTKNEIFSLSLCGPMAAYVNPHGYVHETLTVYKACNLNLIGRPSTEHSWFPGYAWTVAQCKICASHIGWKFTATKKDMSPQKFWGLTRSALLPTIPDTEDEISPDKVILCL

As for `C[C@@]1(N2C(=O)c3ccc(C(=O)O)cc3C2=O)CCC(=O)NC1=O` [Compound 12, (R)-2-(3-methyl-2,6-dioxopiperidin-3-yl)-1,3-dioxoisoindoline-5-carboxylic acid], in assay [1], the Kd came to 0.28 ± 0.08 µM and the “PRPK binding Kd compared with pomalidomide” value is listed as “lower than Pomalidomide”. Further, in assay [2], the equilibrium dissociation constant (Kd) is more than 1000 µM and the “CRBN inhibition (conclusion in words from ITC)” value (“CRBN inhibition” for short) was “not CRBN inhibitors”.
Regarding `O=C1CCC(N2C(=O)c3ccc(-c4cn[nH]c4)c(O)c3C2=O)C(=O)N1` (centres unmarked) [Compound 13, 2-(2,6-dioxopiperidin-3-yl)-4-hydroxy-5-(1H-pyrazol-4-yl)isoindoline-1,3-dione], in assay [1], the Kd turned out to be 1.9 ± 1.7 µM and the “PRPK binding Kd compared with pomalidomide” value is “lower than Pomalidomide”. Moreover, in assay [2], the Kd was found to be 0.54 µM and the “CRBN inhibition” value is listed as “not CRBN inhibitors”.
On to `C[C@@]1(N2C(=O)c3ccc(-c4cn[nH]c4)c(O)c3C2=O)CCC(=O)NC1=O` [Compound 22, (R)-4-hydroxy-2-(3-methyl-2,6-dioxopiperidin-3-yl)-5-(1H-pyrazol-4-yl)isoindoline-1,3-dione], for which the equilibrium dissociation constant (Kd) in assay [1] and in assay [2] was more than 1000 µM throughout.
For `C[C@@]1(N2C(=O)c3ccc(-c4n[nH]c(=S)o4)cc3C2=O)CCC(=O)NC1=O` [Compound 30, (R)-2-(3-methyl-2,6-dioxopiperidin-3-yl)-5-(5-thioxo-4,5-dihydro-1,3,4-oxadiazol-2-yl)isoindoline-1,3-dione], in assay [1], binding was put at a Kd of 0.36 ± 0.07 µM and the “PRPK binding Kd compared with pomalidomide” value is on record as “lower than Pomalidomide”. In assay [2], the Kd was more than 1000 µM and the “CRBN inhibition” value is “not CRBN inhibitors”.
